Assay results from patent US11661397B2, “1,4-disubstituted imidazole derivative” (Sumitomo Pharma Co., Ltd., priority 2015, dated 2023).

What was measured:
[1] = tested on: HCT-116 cells; experiment: Inhibition of sphere-forming ability of cancer cells (Test Example 1); format: cell-based; conditions: Homo sapiens, 96 h; HCT-116 spheres, non-adherent, serum-free, 4 days, CellTiter-Glo; read-out: Sphere IC50 value (concentration for 50% inhibition of cell proliferation)
Method: (§1) HCT-116 cells were available from the American Type Culture Collection (ATCC). HCT-116 cells were cultured at 37° C. and 5% CO2 using the McCoy's 5a medium containing 10% fetal bovine serum (FBS) and 1% penicillin/streptomycin. […] The test compounds were added into each well to adjust the final concentration of DMSO to 0.1%, and the cells were cultured for 4 days.

[2] = tested on: HCT-116 cells; experiment: Test for inhibiting sphere-forming ability of cancer cells in the presence of BSA (Test Example 2); format: cell-based; conditions: Homo sapiens, 96 h; HCT-116 spheres, 5% bovine serum albumin (BSA), 4 days, CellTiter-Glo; read-out: Sphere IC50 value (concentration for 50% inhibition of cell proliferation)
Method: as §1

O=C(Nc1cn(Cc2cccc(C(F)(F)F)c2)cn1)c1ccc(CO)cn1 [Example 1, 5-(Hydroxymethyl)-N-{1-[3-(trifluoromethyl)benzyl]-1H-imidazol-4-yl}picolinamide]
IC50 [1]: 30 nM
IC50 [2]: 350 nM

O=C(COc1ccc(CO)nc1)Nc1cn(Cc2cc(F)c(F)c(F)c2)cn1 [Example 2]
IC50 [1]: 629 nM
IC50 [2]: 605 nM

O=C(Nc1nc(CO)cs1)c1cn(Cc2cc(F)c(F)c(F)c2)cn1 [Example 3]
IC50 [1]: < 10 nM
IC50 [2]: 51 nM

[2H]C([2H])(O)c1ccc(C(=O)Nc2cn(Cc3cccc(C(F)(F)F)c3)cn2)cn1 [Example 4, 6-[Hydroxy (^2H2)methyl]-N-{1-[3-(trifluoromethyl)benzyl]-1H-imidazol-4-yl}nicotinamide]
IC50 [1]: < 10 nM
IC50 [2]: 61 nM

CC(C)(O)c1ccc(C(=O)Nc2cn(Cc3cccc(C(F)(F)F)c3)cn2)cn1 [Example 5, 6-(2-Hydroxypropan-2-yl)-N-{1-[3-(trifluoromethyl)benzyl]-1H-imidazol-4-yl}nicotinamide]
IC50 [1]: 8400 nM

CC(O)c1ccc(C(=O)Nc2cn(Cc3cccc(C(F)(F)F)c3)cn2)cn1 (stereo not shown) [Example 6, 6-(1-Hydroxyethyl)-N-{1-[3-(trifluoromethyl)benzyl]-1H-imidazol-4-yl}nicotinamide]
IC50 [1]: 3650 nM
IC50 [2]: 6970 nM

O=C(Nc1cn(Cc2cccc(C(F)(F)F)c2)cn1)c1csc(CO)n1 [Example 7]
IC50 [1]: 24 nM
IC50 [2]: 520 nM

O=C(Nc1cn(Cc2cc(F)c(F)c(F)c2)cn1)c1csc(CO)n1 [Example 8]
IC50 [1]: 77 nM
IC50 [2]: 578 nM

COCc1ccc(C(=O)Nc2cn(Cc3cccc(C(F)(F)F)c3)cn2)cn1 [Example 9]
IC50 [1]: 5040 nM

O=C(Nc1cn(Cc2cc(F)c(F)c(F)c2)cn1)c1ccc(CO)nc1 [Example 10, 6-(Hydroxymethyl)-N-[1-(3,4,5-trifluorobenzyl)-1H-imidazol-4-yl]nicotinamide]
IC50 [1]: 7 nM
IC50 [2]: 7 nM

O=C(Nc1cn(Cc2cccc(Cl)c2)cn1)c1ccc(CO)nc1 [Example 11]
IC50 [1]: 56 nM

O=C(Nc1cn(Cc2cc(F)c(F)c(F)c2)cn1)c1ccc(CCO)nc1 [Example 13]
IC50 [1]: 675 nM
IC50 [2]: 735 nM

O=C(Nc1cn(Cc2cccc(C(F)(F)F)c2)cn1)c1ccc(/C=C/CO)nc1 [Example 14]
IC50 [1]: 6040 nM

C=C(CO)c1ccc(C(=O)Nc2cn(Cc3cccc(C(F)(F)F)c3)cn2)cn1 [Example 15]
IC50 [1]: 710 nM
IC50 [2]: 5770 nM

CCOCc1ccc(C(=O)Nc2cn(Cc3cc(F)c(F)c(F)c3)cn2)cn1 [Example 16]
IC50 [1]: 892 nM
IC50 [2]: 1450 nM

O=C(Nc1cn(Cc2cccc(C(F)(F)F)c2)cn1)c1cnc(CO)c(C(F)(F)F)c1 [Example 19, 6-(hydroxymethyl)-5-(trifluoromethyl)-N-{1-[3-(trifluoromethyl)benzyl]-1H-imidazol-4-yl}nicotinamide]
IC50 [1]: 70 nM
IC50 [2]: 403 nM

O=C(Nc1cn(Cc2cccc(C(F)(F)F)c2)cn1)c1cnc(CO)cn1 [Example 20]
IC50 [1]: 53 nM
IC50 [2]: 313 nM

O=C(Nc1cn(Cc2cccc(C(F)(F)F)c2)cn1)c1cc(CO)on1 [Example 21]
IC50 [1]: 653 nM
IC50 [2]: 767 nM

O=C(Nc1ccc(CO)nc1)c1cn(Cc2cc(F)c(F)c(F)c2)cn1 [Example 22, N-[6-(Hydroxymethyl)pyridin-3-yl]-1-(3,4,5-trifluorobenzyl)-1H-imidazole-4-carboxamide]
IC50 [1]: < 10 nM
IC50 [2]: < 10 nM

CNCc1ccc(C(=O)Nc2cn(Cc3cccc(C(F)(F)F)c3)cn2)cn1 [Example 26, 6-[(Methylamino)methyl]-N-{1-[3-(trifluoromethyl)benzyl]-1H-imidazol-4-yl}nicotinamide]
IC50 [1]: 824 nM

COc1cc(C(=O)Nc2cn(Cc3cccc(C(F)(F)F)c3)cn2)cnc1CO [Example 33]
IC50 [1]: 9800 nM

Cc1nc(CO)ccc1C(=O)Nc1cn(Cc2cccc(C(F)(F)F)c2)cn1 [Example 34]
IC50 [1]: 7390 nM
